Experimental data reported in ChEMBL document CHEMBL6121066, “Structure-Activity Relationship Studies of DNA Methyltransferase 1 Monovalent Degraders” (J Med Chem, 2025).

Legend:
[1] = Induction of molecular glue effect mediated DNMT1 degradation in human HCT-116 cells assessed as reduction in DNMT1 protein level incubated for 24 hrs by Western blot analysis; assay type: cell-based; conditions: HCT-116, 24 h
[2] = system: HCT-116; assay: Induction of molecular glue effect mediated DNMT1 degradation in human HCT-116 cells assessed as reduction in DNMT1 protein level by measuring maximal efficacy at 1 uM incubated for 24 hrs by Western blot analysis relative to control; assay type: cell-based

SMILES	DC50 [1]	Emax [2]
CCc1c(C#N)c(SC(C(N)=O)c2ccccc2)nc(N2CCC(NC(=O)C34CC5CC(CC(C5)C3)C4)CC2)c1C#N (stereo not given)	35 nM	92%
CCc1c(C#N)c(S[C@@H](C(N)=O)c2ccccc2)nc(N(C)C)c1C#N		89%
CCc1c(C#N)c(SC(C(N)=O)c2ccccc2)nc(N2CCC(N)C2)c1C#N (stereo not given)	92 nM	87%
CCc1c(C#N)c(SC(C(N)=O)c2ccccc2)nc(N2CCN(C(=O)c3cc[nH]n3)CC2)c1C#N (stereo not given)	144 nM	89%
CCc1c(C#N)c(SC(C(N)=O)c2ccccc2)nc(N2CCNC(=O)CC2)c1C#N (stereo not given)	819 nM	58%
CCc1c(C#N)c(SC(C(N)=O)c2ccccc2)nc(N2CCN(C(=O)c3ccc(C(C)C)s3)CC2)c1C#N (stereo not given)	405 nM	71%
CCc1c(C#N)c(SC(C(N)=O)c2ccccc2)nc(N2CCN(C(C)=O)CC2)c1C#N (stereo not given)	107 nM	87%
CCc1c(C#N)c(SC(C(N)=O)c2ccccc2)nc(N2CCN(C(=O)c3cc4ccccc4s3)CC2)c1C#N (stereo not given)	714 nM	74%
CCc1c(C#N)c(SC(C(N)=O)c2ccccc2)nc(N2CCC(NC(=O)C(C)(C)C)CC2)c1C#N (stereo not given)	39 nM	90%
CCc1c(C#N)c(SC(C(N)=O)c2ccccc2)nc(N2CCN(C(=O)c3ccc(Br)cc3)CC2)c1C#N (stereo not given)	563 nM	79%
CCc1c(C#N)c(SC(C(N)=O)c2ccccc2)nc(N2CCC(=O)N(C)CC2)c1C#N (stereo not given)	121 nM	86%
CCc1c(C#N)c(SC(C(N)=O)c2ccccc2)nc(N2CCN(C(=O)C3CCCCCC3)CC2)c1C#N (stereo not given)	175 nM	87%
CCc1c(C#N)c(SC(C(N)=O)c2ccccc2)nc(N2CCC(N(C)C)CC2)c1C#N (stereo not given)	35 nM	92%
CCc1c(C#N)c(SC(C(N)=O)c2ccccc2)nc(N2CCN(C(=O)C(C)(C)C)CC2)c1C#N (stereo not given)	63 nM	88%
CCc1c(C#N)c(SC(C(N)=O)c2ccccc2)nc(N2CCN(C(=O)c3ccco3)CC2)c1C#N (stereo not given)	42 nM	94%
CCc1c(C#N)c(SC(C(N)=O)c2ccccc2)nc(N2CCS(=O)(=O)CC2)c1C#N (stereo not given)	362 nM	74%
CCc1c(C#N)c(SC(C(N)=O)c2ccccc2)nc(N2CCN(C)CC2)c1C#N (stereo not given)	> 1000 nM	46%
CCc1c(C#N)c(SC(C(N)=O)c2ccccc2)nc(N2CCC(NC(C)=O)CC2)c1C#N (stereo not given)	> 1000 nM	13%
